Measurements as given in ChEMBL document CHEMBL3046443, “Lipid lowering and antioxidant activity of flavones in triton treated hyperlipidemic rats” (2011).

Experiments:
Type in all cases: functional
[1] = Antioxidant activity assessed as hydroxyl radical scavenging activity at 200 ug/ml
Rattus norvegicus [2] = test: Antihyperlipidemic activity in Rattus norvegicus Charles Foster (rat) trition WR-1339-induced hyperlipidemic model assessed as reduction of total phospholipid level in plasma at 200 mg/kg, po; set-up: scale not given: the % may be the effect or the level left
Rattus norvegicus [3] = test: Antihyperlipidemic activity in Rattus norvegicus Charles Foster (rat) trition WR-1339-induced hyperlipidemic model assessed as reduction of total triglyceride level in plasma at 200 mg/kg, po; set-up: scale not given: the % may be the effect or the level left
Rattus norvegicus [4] = test: Antihyperlipidemic activity in Rattus norvegicus Charles Foster (rat) trition WR-1339-induced hyperlipidemic model assessed as reduction of total cholesterol level in plasma at 200 mg/kg, po; set-up: scale not given: the % may be the effect or the level left
[5] = Antioxidant activity assessed as inhibition of xanthine-xanthine oxidase generated superoxide anion radical production at 100 ug/ml after 30 min by NBT reduction assay
[6] = Antioxidant activity assessed as hydroxyl radical scavenging activity at 100 ug/ml
[7] = Antioxidant activity assessed as inhibition of xanthine-xanthine oxidase generated superoxide anion radical production at 200 ug/ml after 30 min by NBT reduction assay

| SMILES | Activity [1] | Activity (Rattus norvegicus [2]) | Activity (Rattus norvegicus [3]) | Activity (Rattus norvegicus [4]) | inhibition [5] | Activity [6] | inhibition [7] |
| --- | --- | --- | --- | --- | --- | --- | --- |
| OC[C@@H](O)[C@@H](O)[C@H](O)[C@H](O)CO | -48% |  |  |  |  |  |  |
| C/C=C1\C(=O)C[C@H]2[C@@H]3CCC4=CC(=O)CC[C@]4(C)[C@H]3CC[C@]12C [GUGGULSTERONE] |  | 35% | 36% | 35% |  |  |  |
| O=c1c(O)c(-c2cc(O)c(O)c(O)c2)oc2cc(O)cc(O)c12 [MYRICETIN] | 53% | 25% | 24% | 24% | 27% | -36% |  |
| O.O=C1CC(c2ccc(O)cc2)Oc2cc(O)cc(O)c21 (centres undefined) [NARINGENIN HYDRATE] | 38% | 27% | 26% | 27% | 19% | 26% | 34% |
| C[C@@H]1O[C@@H](OC[C@H]2O[C@@H](Oc3c(-c4ccc(O)c(O)c4)oc4cc(O)cc(O)c4c3=O)[C@H](O)[C@@H](O)[C@@H]2O)[C@H](O)[C@H](O)[C@H]1O [RUTIN] | 32% | 10% | 11% | 8% | 18% | 21% | 35% |
